± gives the expanded uncertainty stated by the source.
Key:
[1] = for Triple point temperature: Crystal 2, DTA; for vapor or sublimation pressure: Crystal, Calculated from knudsen effusion weight loss
[2] = Molar enthalpy of transition or fusion; conditions: Crystal 2; DSC
[3] = molar heat capacity at constant pressure; conditions: 101.33 kPa, Small sample (50 mg) DSC

**Q.** With CC(C)c1nc2ccccc2[nH]1 [1H-benzimidazole, 2-(1-methylethyl)-] as the molecule, how does the Triple point temperature [1] read?
**A.** 410.4 ± 0.4 K

**Q.** And the “Molar enthalpy of transition or fusion” value [2]?
**A.** 0.239 ± 0.0478 kcal/mol

**Q.** And the “molar heat capacity at constant pressure” value ([3]; 268.15 K, Crystal 2)?
**A.** 197 ± 3.9 J/K/mol

**Q.** And the “molar heat capacity at constant pressure” value ([3]; 270.15 K, Crystal 2)?
**A.** 199 ± 4 J/K/mol

**Q.** And the “molar heat capacity at constant pressure” value ([3]; 275.15 K, Crystal 2)?
**A.** 202.8 ± 4.1 J/K/mol

**Q.** What about the “molar heat capacity at constant pressure” value ([3]; 280.15 K, Crystal 2) of the same molecule?
**A.** 206.9 ± 4.1 J/K/mol

**Q.** What about the “molar heat capacity at constant pressure” value ([3]; 285.15 K, Crystal 2) of the same molecule?
**A.** 210.8 ± 4.2 J/K/mol

**Q.** And the “molar heat capacity at constant pressure” value ([3]; 290.15 K, Crystal 2)?
**A.** 214.4 ± 4.3 J/K/mol

**Q.** What about the “molar heat capacity at constant pressure” value ([3]; 295.15 K, Crystal 2) of the same molecule?
**A.** 218.7 ± 4.4 J/K/mol

**Q.** And the “molar heat capacity at constant pressure” value ([3]; 298.15 K, Crystal 2)?
**A.** 220.6 ± 4.4 J/K/mol

**Q.** And the “molar heat capacity at constant pressure” value ([3]; 300.15 K, Crystal 2)?
**A.** 221.7 ± 4.4 J/K/mol

**Q.** And the “molar heat capacity at constant pressure” value ([3]; 305.15 K, Crystal 2)?
**A.** 224.5 ± 4.5 J/K/mol

**Q.** What about the “molar heat capacity at constant pressure” value ([3]; 310.15 K, Crystal 2) of the same molecule?
**A.** 228 ± 4.6 J/K/mol

**Q.** And the “molar heat capacity at constant pressure” value ([3]; 315.15 K, Crystal 2)?
**A.** 230.9 ± 4.6 J/K/mol

**Q.** What about the “molar heat capacity at constant pressure” value ([3]; 320.15 K, Crystal 2) of the same molecule?
**A.** 234.6 ± 4.7 J/K/mol

**Q.** And the “molar heat capacity at constant pressure” value ([3]; 325.15 K, Crystal 2)?
**A.** 238 ± 4.8 J/K/mol

**Q.** And the “molar heat capacity at constant pressure” value ([3]; 330.15 K, Crystal 2)?
**A.** 240.7 ± 4.8 J/K/mol

**Q.** What about the “molar heat capacity at constant pressure” value ([3]; 335.15 K, Crystal 2) of the same molecule?
**A.** 245.2 ± 4.9 J/K/mol

**Q.** What about the “molar heat capacity at constant pressure” value ([3]; 340.15 K, Crystal 2) of the same molecule?
**A.** 248.9 ± 5 J/K/mol

**Q.** And the “molar heat capacity at constant pressure” value ([3]; 345.15 K, Crystal 2)?
**A.** 252.7 ± 5 J/K/mol

**Q.** And the “molar heat capacity at constant pressure” value ([3]; 350.15 K, Crystal 2)?
**A.** 256 ± 5.1 J/K/mol

**Q.** What about the “molar heat capacity at constant pressure” value ([3]; 355.15 K, Crystal 2) of the same molecule?
**A.** 260 ± 5.2 J/K/mol

**Q.** And the “molar heat capacity at constant pressure” value ([3]; 360.15 K, Crystal 2)?
**A.** 264 ± 5.3 J/K/mol

**Q.** What about the “molar heat capacity at constant pressure” value ([3]; 365.15 K, Crystal 2) of the same molecule?
**A.** 267.4 ± 5.3 J/K/mol

**Q.** And the “molar heat capacity at constant pressure” value ([3]; 370.15 K, Crystal 2)?
**A.** 272 ± 5.4 J/K/mol

**Q.** And the “molar heat capacity at constant pressure” value ([3]; 375.15 K, Crystal 2)?
**A.** 276.3 ± 5.5 J/K/mol

**Q.** What about the “molar heat capacity at constant pressure” value ([3]; 380.15 K, Crystal 2) of the same molecule?
**A.** 280.1 ± 5.6 J/K/mol

**Q.** And the “molar heat capacity at constant pressure” value ([3]; 385.15 K, Crystal 2)?
**A.** 284.6 ± 5.7 J/K/mol

**Q.** And the “molar heat capacity at constant pressure” value ([3]; 425.15 K, Crystal 1)?
**A.** 285.7 ± 5.7 J/K/mol

**Q.** And the “molar heat capacity at constant pressure” value ([3]; 430.15 K, Crystal 1)?
**A.** 288.4 ± 5.8 J/K/mol

**Q.** What about the “molar heat capacity at constant pressure” value ([3]; 435.15 K, Crystal 1) of the same molecule?
**A.** 292.2 ± 5.8 J/K/mol

**Q.** And the “molar heat capacity at constant pressure” value ([3]; 440.15 K, Crystal 1)?
**A.** 298.2 ± 6 J/K/mol

**Q.** What about the “molar heat capacity at constant pressure” value ([3]; 445.15 K, Crystal 1) of the same molecule?
**A.** 301.3 ± 6 J/K/mol

**Q.** What about the “molar heat capacity at constant pressure” value ([3]; 450.15 K, Crystal 1) of the same molecule?
**A.** 308.5 ± 6.2 J/K/mol

**Q.** And the “molar heat capacity at constant pressure” value ([3]; 455.15 K, Crystal 1)?
**A.** 310.9 ± 6.2 J/K/mol

**Q.** And the “molar heat capacity at constant pressure” value ([3]; 460.15 K, Crystal 1)?
**A.** 314.8 ± 6.3 J/K/mol

**Q.** And the “molar heat capacity at constant pressure” value ([3]; 463.15 K, Crystal 1)?
**A.** 316.2 ± 6.3 J/K/mol

**Q.** Which “vapor or sublimation pressure” value ([1]; 344.53 K) does the source give for CCCc1nc2ccccc2[nH]1 [1H-benzimidazole, 2-propyl-] here?
**A.** 4.28e-05 ± 2.2e-06 kPa

**Q.** And the “vapor or sublimation pressure” value ([1]; 352.14 K)?
**A.** 9.52e-05 ± 4.8e-06 kPa

**Q.** What about the “vapor or sublimation pressure” value ([1]; 355.33 K) of the same molecule?
**A.** 0.000131 ± 7e-06 kPa

**Q.** And the “vapor or sublimation pressure” value ([1]; 362.01 K)?
**A.** 0.000266 ± 1.3e-05 kPa

**Q.** What about the “vapor or sublimation pressure” value ([1]; 364.33 K) of the same molecule?
**A.** 0.000324 ± 1.6e-05 kPa

**Q.** What about the Triple point temperature [1] of the same molecule?
**A.** 385.8 ± 0.5 K

**Q.** What about the “Molar enthalpy of transition or fusion” value [2] of the same molecule?
**A.** 0.359 ± 0.0478 kcal/mol

**Q.** What about the “molar heat capacity at constant pressure” value ([3]; 268.15 K, Crystal 2) of the same molecule?
**A.** 190.5 ± 3.8 J/K/mol

**Q.** And the “molar heat capacity at constant pressure” value ([3]; 270.15 K, Crystal 2)?
**A.** 192.6 ± 3.9 J/K/mol

**Q.** What about the “molar heat capacity at constant pressure” value ([3]; 275.15 K, Crystal 2) of the same molecule?
**A.** 197.1 ± 3.9 J/K/mol

**Q.** And the “molar heat capacity at constant pressure” value ([3]; 280.15 K, Crystal 2)?
**A.** 201.5 ± 4 J/K/mol

**Q.** And the “molar heat capacity at constant pressure” value ([3]; 285.15 K, Crystal 2)?
**A.** 206.1 ± 4.1 J/K/mol

**Q.** What about the “molar heat capacity at constant pressure” value ([3]; 290.15 K, Crystal 2) of the same molecule?
**A.** 210.1 ± 4.2 J/K/mol

**Q.** And the “molar heat capacity at constant pressure” value ([3]; 295.15 K, Crystal 2)?
**A.** 214.4 ± 4.3 J/K/mol

**Q.** What about the “molar heat capacity at constant pressure” value ([3]; 298.15 K, Crystal 2) of the same molecule?
**A.** 217.1 ± 4.3 J/K/mol

**Q.** What about the “molar heat capacity at constant pressure” value ([3]; 300.15 K, Crystal 2) of the same molecule?
**A.** 218.7 ± 4.4 J/K/mol

**Q.** What about the “molar heat capacity at constant pressure” value ([3]; 305.15 K, Crystal 2) of the same molecule?
**A.** 223.2 ± 4.5 J/K/mol

**Q.** What about the “molar heat capacity at constant pressure” value ([3]; 310.15 K, Crystal 2) of the same molecule?
**A.** 228.3 ± 4.6 J/K/mol

**Q.** And the “molar heat capacity at constant pressure” value ([3]; 315.15 K, Crystal 2)?
**A.** 234 ± 4.7 J/K/mol

**Q.** And the “molar heat capacity at constant pressure” value ([3]; 320.15 K, Crystal 2)?
**A.** 239.7 ± 4.8 J/K/mol

**Q.** And the “molar heat capacity at constant pressure” value ([3]; 325.15 K, Crystal 2)?
**A.** 245.7 ± 4.9 J/K/mol

**Q.** What about the “molar heat capacity at constant pressure” value ([3]; 330.15 K, Crystal 2) of the same molecule?
**A.** 252.2 ± 5 J/K/mol

**Q.** What about the “molar heat capacity at constant pressure” value ([3]; 335.15 K, Crystal 2) of the same molecule?
**A.** 258.6 ± 5.2 J/K/mol

**Q.** And the “molar heat capacity at constant pressure” value ([3]; 340.15 K, Crystal 2)?
**A.** 263.7 ± 5.3 J/K/mol

**Q.** And the “molar heat capacity at constant pressure” value ([3]; 345.15 K, Crystal 2)?
**A.** 268.3 ± 5.4 J/K/mol

**Q.** And the “molar heat capacity at constant pressure” value ([3]; 350.15 K, Crystal 2)?
**A.** 274.9 ± 5.5 J/K/mol

**Q.** What about the “molar heat capacity at constant pressure” value ([3]; 355.15 K, Crystal 2) of the same molecule?
**A.** 282.4 ± 5.7 J/K/mol

**Q.** And the “molar heat capacity at constant pressure” value ([3]; 360.15 K, Crystal 2)?
**A.** 292.6 ± 5.8 J/K/mol

**Q.** What about the “molar heat capacity at constant pressure” value ([3]; 365.15 K, Crystal 2) of the same molecule?
**A.** 306.3 ± 6.1 J/K/mol

**Q.** And the “molar heat capacity at constant pressure” value ([3]; 400.15 K, Crystal 1)?
**A.** 280.1 ± 5.6 J/K/mol

**Q.** What about the “molar heat capacity at constant pressure” value ([3]; 405.15 K, Crystal 1) of the same molecule?
**A.** 285.2 ± 5.7 J/K/mol

**Q.** What about the “molar heat capacity at constant pressure” value ([3]; 410.15 K, Crystal 1) of the same molecule?
**A.** 290.7 ± 5.8 J/K/mol

**Q.** And the “molar heat capacity at constant pressure” value ([3]; 415.15 K, Crystal 1)?
**A.** 297.5 ± 6 J/K/mol

**Q.** What about the “molar heat capacity at constant pressure” value ([3]; 420.15 K, Crystal 1) of the same molecule?
**A.** 306.5 ± 6.1 J/K/mol

From the NIST ThermoML archive (doi:10.1016/j.jct.2004.03.005)
